Data set [1] is described as follows: Lipophilicity (logD7.4) determination according to the present invention, two 1-octanol/phosphate buffer solvent systems in 96 deep well plate, LC/MS. It is filed as physicochemical. The settings on record: 1-octanol:phosphate buffer pH 7.4 at 5:95 and 50:50, 25° C., 3 hours shaking; for logD: read-out: LogD Inventive determination method (Example). How it is done: Thirty-eight test compounds were determined for logD7.4 according to the present invention. The solution amount per well was set to 1 mL, and 1-octanol was used as a hydrophobic solvent and a phosphate buffer solution buffered at pH 7.4 as a hydrophilic solvent. The amounts of the test substance to be added to the first and second solvent systems, respectively, were adjusted to be equal (X=Y in Equation I). […] Following the above-mentioned conditions, X=Y, a=5, b=95, and c=d=50 were substituted into Equation I to obtain the following quadratic equation (Equation II). As described below, once the test substance was determined, the value of C2/C1 could be determined on the basis of the peak area values and dilution ratios. The resulting value was substituted into Equation II to determine the distribution ratio D, and the common logarithm of this ratio was obtained to thereby compute logD7.4.
Dispensing, shaking, dilution and other steps were automated by a dispensing robot (Hamilton; MicroLabSTARlet), and transfer of plates between systems and some other tasks were performed manually. The specific test procedure is as follows.
Dulbecco's reagent (for 1 L of Sigma's PBS solution; containing 8 g of sodium chloride, 1.15 g of anhydrous sodium monohydrogen phosphate, 0.2 g of potassium chloride, and 0.2 g of anhydrous potassium dihydrogen phosphate) was diluted to give a volume of 1 L, stirring was performed, and insoluble matters were filtered off. The pH of the solution was measured and adjusted to pH 7.4 with 1N HCl.
A separating funnel was charged with a sufficient amount of each of 1-octanol (Kanto Chemical; for distribution coefficient determination) and the phosphate buffer solution prepared in (1), they were mixed well, and the mixture was allowed to stand overnight at room temperature. The upper and lower phases were recovered separately to obtain 1-octanol saturated with the phosphate buffer solution (saturated 1-octanol) and the phosphate buffer solution saturated with 1-octanol (saturated phosphate buffer solution). The resulting solutions were stored at room temperature.
A test compound was added to DMSO to prepare a 10 mM solution.
(1) Ten microliters of the 10 mM test compound solution in DMSO and then 490 μL of saturated 1-octanol were dispensed into a 96 deep well plate. Stirring by suction and ejection was repeated 10 times to prepare a standard octanol solution of the test compound.
(2) Fifty microliters of the standard octanol solution was dispensed into each of two wells; thereafter, 950 μL of the saturated phosphate buffer solution was dispensed into the first well (hydrophobic solvent:hydrophilic solvent=5:95), and 500 μL of the saturated phosphate buffer solution and 450 μL of saturated 1-octanol were dispensed into the second well (hydrophobic solvent:hydrophilic solvent=50:50).
(3) A pressure curable sealant was applied to the multiwell plate, and then the plate was shaken on a shaker at 25° C. for 3 hours. After the shaking, centrifugation was performed at 3000 rpm for 5 minutes.
(4) The lower phase (aqueous phase) was drawn from the first well and diluted 10-fold with methanol to thereby prepare a sample. From the second well, the upper phase (1-octanol phase) was drawn and diluted 10-fold and 50-fold with methanol to thereby prepare two additional samples.
With these 4 samples placed on an LC/MS auto sampler, determination was performed automatically.
(3) The aqueous solution of 0.1% formic acid (solution A) and the acetonitrile solution of 0.1% formic acid (solution B) were used as a HPLC mobile phase.
(4) HPLC was performed using Waters Acquity with a binary pump. The column stationary phase used was a reversed-phase column having octadecyl groups (Acquity BEH C18, 1.7 μm, 2.0×30 mm). The column temperature was set to 50° C.
(5) MS was performed using Waters ZQ or SQD. Data was acquired with the detection mode being set to ESI^+ and the type of ion to be detected being set to [M+H]^+.

Data set [2] can be described thus: Lipophilicity determination by a shake-flask method (Comparative Example), 1-octanol/phosphate buffer pH 7.4, LC/MS. Format: physicochemical. Conditions: 1-octanol / phosphate buffer solution pH 7.4, shaken 10 minutes.
For data set [3] the following is noted: cited from earlier work.

The values that follow come from US20130261986A1, “METHOD FOR DETERMINING LIPOPHILICITY” (ASTELLAS PHARMA INC., priority 2010, published 2013).

As usually defined, the logD is lipophilicity at a set pH, counting ionised and neutral species. Consider `NC(=O)N1c2ccccc2C=Cc2ccccc21` [Carbamazepine], for which the pH-dependent lipophilicity (logD) in data set [1] stood at 2; in data set [2], 1.8. Moreover, in data set [3], the “LogD Literature value” is reported as 1.5.

As for `Cc1ccc(-c2cc(C(F)(F)F)nn2-c2ccc(S(N)(=O)=O)cc2)cc1` [Celecoxib], the results for the logD in data set [1] and in data set [2] were 4.5 and 4.3, respectively.

For the molecule `COc1ccc2c(c1)c(CC(=O)O)c(C)n2C(=O)c1ccc(Cl)cc1` [Indomethacin], in data set [1], the “LogD Inventive determination method (Example)” value is 1.1. The molecule also gave a logD in data set [2] of 1.2. Moreover, the “LogD Literature value” in data set [3] is on record as 0.9.

For the molecule `CC(CCc1ccccc1)NCC(O)c1ccc(O)c(C(N)=O)c1` (stereo not drawn) [Labetalol], the logD in data set [1] was 0.9; in data set [2] it was 1.

Turning to `OCCN1CCN(CCCN2c3ccccc3Sc3ccc(Cl)cc32)CC1` [Perphenazine], the values for the logD in data set [1] and in data set [2] were 3.6 and 3.8, respectively.

Consider `CCc1ccc(CCOc2ccc(CC3SC(=O)NC3=O)cc2)nc1` (stereo not drawn) [Pioglitazone], for which the logD in data set [1] worked out at 3.2; in data set [2] it was 3.

`CCCN(CCC)S(=O)(=O)c1ccc(C(=O)O)cc1` [Probenecid]: the logD was 0 in data set [1] and -0.3 in data set [2].

Regarding `CCOc1ccccc1OCCN[C@H](C)Cc1ccc(OC)c(S(N)(=O)=O)c1` [Tamsulosin], the logD in data set [1] and in data set [2] was 0.8 each time.
